Results on 1 compound are retold here after US20230149355A1, “COMPOSITIONS AND METHODS FOR MODULATING TRP CHANNEL ACTIVITY” (priority 2020, published 2023).

Each structure is given as a SMILES string.

The subject of one experiment is zebrafish EECs (Trpa1). Kind of experiment: In vivo EEC calcium, Tg(neurod1:Gcamp6f) zebrafish. The settings on record: trpa1b-dependent. The method, then:
To record in vivo EEC activity using the Tg(neurod1:Gcamp6f) system, a published protocol with slight modification (Ye et al., 2019) was used. In brief, unanesthetized zebrafish larvae were gently mounted in 3% methylcellulose. Excess water was removed and zebrafish larvae were gently positioned with right side up. Zebrafish were then moved onto an upright Leica M205 FA fluorescence stereomicroscope equipped with a Leica DFC 365FX camera. The zebrafish larvae were allowed to recover for 2 mins before 100 μL of test agent was pipetted directly in front of the mouth region. Images were then recorded every 10 seconds. The data shown in FIG. 2O-R, depicting the EEC responses to E. tarda stimulation, were obtained by mounting unanesthetized zebrafish larvae in 1% low melting agarose. A window (5×5 mm) was cut to expose the head region of the zebrafish. 10 μL of E. tarda culture [˜10^9 Colony Forming Unit (CFU)] were delivered at the zebrafish mouth area. Images were recorded every 10 secs for 20 mins. Image processing and analysis were performed using FIJI software. Time-lapse fluorescence images were first aligned to correct for experimental drift using the plugin “align slices in stack.” Normalized correlation coefficient matching and bilinear interpolation methods for subpixel translation were used for aligning slices (Tseng et al., 2012). The plugin “rolling ball background subtraction” with the rolling ball radius=10 pixels was used to remove the large spatial variation of background intensities. The Gcamp6f fluorescence intensity in the intestinal region was then calculated for each time point. The ratio of maximum fluorescence (Fmax) and the initial fluorescence (F0) was used to measure EEC calcium responses.
For EEC Trpa1 activation using the Optovin platform, zebrafish larvae were treated with 10 μM Optovin overnight. Following Optovin treatment, unanesthetized zebrafish were mounted in 1% LMA and imaged under a 780 upright Zeiss confocal microscope using 20× water objective lenses. For all the experiments, the mid-intestine region was imaged (FIG. 10D). The intestinal epithelium was selected as the region of interest (ROI) (FIG. 10A). Serial images were obtained at 1 s/frame. A 405 nm pulse of light was applied to the ROI at 1 pulse/10 s. For some experiments (FIG. 7D-F, FIG. 10B-G), the images were obtained at 10 s/frame. When measuring Optovin effects on intestinal motility in ret−/−, sox10−/− or tph1b−/− zebrafish larvae, embryos were collected from heterozygous zebrafish. ret−/− zebrafish were identified by lack of ENS and deflated swim bladder (Knight et al., 2011), sox10−/− zebrafish were identified by lack of pigment (Rolig et al., 2017), and tph1b−/− zebrafish were identified by PCR-based genotyping (Tornini et al., 2017).
To determine whether Optovin-UV or ChR2 was sufficient to activate EECs, Tg(neurod1:Gcamp6f) zebrafish were used. […] The Gcamp6f signal was recorded with 488 nm laser intensity less than 0.5. The zebrafish intestinal motility is quantified through recorded image series of zebrafish intestine using the method similar as previously described (Ganz et al., 2018). […] When calculating the mean velocity, only the mean velocity magnitude was calculated, which therefore doesn't account for the movement direction. The MTrackJ FIJI plugin was used to quantify the mean velocity magnitude (Meijering et al., 2012).

Another experiment has as its system human ileum. Kind of experiment: Amperometric measurement of 5-HT secretion, human small intestine. The conditions noted are these: 10 mM Indole. The source says: (§1) These experiments using C57BL/6J mice were approved by the Flinders University Animal Welfare Committee (number 965-19) and human ileum tissue was collected from resected small and large intestine from patients that gave written informed consent under the approval of the Southern Adelaide Clinical Human Research Ethics Committee (number 50.07) as previous (Sun et al., 2019a). Mice were euthanized at 8 to 12 weeks by isoflurane overdose followed by cervical dislocation. The duodenum was removed and placed in Krebs solution oxygenated with 95% O2, 5% CO2. A midline incision was made along the duodenum to create a flat sheet, the section was pinned with the mucosal side up in an organ bath lined with Sylgard and containing oxygenated Krebs solution. Serotonin release was measured using amperometry. A carbon-fibre electrode (5-μm diameter, ProCFE; Dagan Corporation, Minneapolis, Minn.), was lowered above the mucosa and 400 mV potential was applied to the electrode causing oxidation of serotonin (Zelkas et al., 2015). […] The change in amplitude due to serotonin oxidation was recorded using an EPC-10 amplifier and Pulse software (HEKA Electronic, Lambrecht/Pfalz, Germany), and samples at 10 kHz and low-pass filtered at 1 kHz. Data was assessed as peak current during each treatment. Data was analyzed comparing all groups using one-way ANOVA with Tukey's post-hoc test. […]

The subject of another experiment is mouse duodenum. Kind of experiment: Amperometric measurement of 5-HT secretion, mouse small intestine. The conditions noted are these: 10 mM Indole.
Description: as §1

For the compound `c1ccc2[nH]ccc2c1` [Indole], the “Zebrafish EEC activation (Gcamp6f fluorescence)” value with zebrafish EECs (Trpa1) is “strongly activated”. The “5-HT secretion in human ileum” value with human ileum is listed as “significant increase”. The “5-HT secretion in mouse duodenum” value with mouse duodenum is reported as “significant increase”.
